The experiment has as its target T1, 11β-HSD1 (Homo sapiens, UniProt P28845).
T1 construct: detecting cortisol generated from cortisterone by human liver microsomes; from tissue; host or cells: human liver microsomes
Briefly: In vitro inhibition of 11β-HSD1, HTRF detection of cortisol generated from cortisone by human liver microsomes. The experiment is classed as biochemical. As to conditions: compound concentration 1 μM, 100% indicates no inhibition, zero or below zero indicates complete inhibition. As to the method:
Briefly, compounds are incubated for 1 hour at 37° C. in Tris buffer (20 mM tris, 5 mM EDTA, pH 6.0) containing NADPH (200 μM) and cortisone (80 nM). Cortisol generated in the reaction is then detected with a competitive immunoassay, involving two HTRF conjugates: cortisol linked to XL665 and anti-cortisol antibody labeled with Europium cryptate. The incubation period for detection reaction is typically 2 hours. The amount of cortisol is determined by reading the time-resolved fluorescence of the wells (Ex 320/75 nm; Em 615/8.5 nm and 665/7.5 nm). The ratio of the two emission signals is then calculated (Em665*10000/Em615). […] Each assay also contains a calibration curve with cortisol to transform the fluorescent data into cortisol concentrations. Percent inhibition (% CTL) of each compound is determined relative to the carbenoxolone signal and IC50 curves are generated.
The % CTL values of some example compounds at a concentration of 1 μM are provided in the following Table 2 wherein 100% indicates no inhibition and a value of zero or below zero indicates complete inhibition. The measurement of % CTL is described hereinbefore.
(In TR-FRET formats the signal depends on donor and acceptor labels being close together.)
T1 sequence (P28845 whole entry): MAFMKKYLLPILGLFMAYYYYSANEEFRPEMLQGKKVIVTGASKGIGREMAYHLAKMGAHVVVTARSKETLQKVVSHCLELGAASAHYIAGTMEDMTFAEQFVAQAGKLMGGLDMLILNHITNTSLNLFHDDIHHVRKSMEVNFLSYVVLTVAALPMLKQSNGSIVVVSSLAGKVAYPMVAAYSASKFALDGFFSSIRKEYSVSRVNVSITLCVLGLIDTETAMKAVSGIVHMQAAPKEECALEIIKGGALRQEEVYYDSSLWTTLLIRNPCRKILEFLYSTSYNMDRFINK
In the case of `O=C(N1CCCCC1)N1[C@@H]2CC[C@H]1C[C@@H](c1ccc(F)cc1)C2` [Example 1, endo-[3-(4-Fluoro-phenyl)-8-aza-bicyclo[3.2.1]oct-8-yl]-piperidin-1-yl-methanone], the “11β-HSD1 remaining activity (% of control)” value is −49 % CTL.
As to `O=C(N1CCCC1)N1[C@@H]2CC[C@H]1C[C@@H](c1ccc(F)cc1)C2` [Example 2, endo-[3-(4-Fluoro-phenyl)-8-aza-bicyclo[3.2.1]oct-8-yl]-pyrrolidin-1-yl-methanone], the “11β-HSD1 remaining activity (% of control)” value is on record as −3 % CTL.
In the case of `O=C(N1CCOCC1)N1[C@@H]2CC[C@H]1C[C@@H](c1ccc(F)cc1)C2` [Example 3, endo-[3-(4-Fluoro-phenyl)-8-aza-bicyclo[3.2.1]oct-8-yl]-morpholin-4-yl-methanone], the “11β-HSD1 remaining activity (% of control)” value is listed as −29 % CTL.
For the compound `CC(=O)NC1CCN(C(=O)N2[C@@H]3CC[C@H]2C[C@@H](c2ccc(F)cc2)C3)CC1` [Example 4, endo-N-{1-[3-(4-Fluoro-phenyl)-8-aza-bicyclo[3.2.1]octane-8-carbonyl]-piperidin-4-yl}-acetamide], the “11β-HSD1 remaining activity (% of control)” value is 46 % CTL.
To `O=C(N1CCC(O)CC1)N1[C@@H]2CC[C@H]1C[C@@H](c1ccc(F)cc1)C2` [Example 5, endo-[3-(4-Fluoro-phenyl)-8-aza-bicyclo[3.2.1]oct-8-yl]-(4-hydroxy-piperidin-1-yl)-methanone] belongs −46 % CTL.
Take `O=C(N1CCc2nc[nH]c2C1)N1[C@@H]2CC[C@H]1C[C@@H](c1ccc(F)cc1)C2` [Example 6, endo-[3-(4-Fluoro-phenyl)-8-aza-bicyclo[3.2.1]oct-8-yl]-(3,4,6,7-tetrahydro-imidazo[4,5-c]pyridin-5-yl)-methanone]: the “11β-HSD1 remaining activity (% of control)” value came out at 65 % CTL.
With `O=C(N1CCc2sccc2C1)N1[C@@H]2CC[C@H]1C[C@@H](c1ccc(F)cc1)C2` [Example 7, endo-(6,7-Dihydro-4H-thieno[3,2-c]pyridin-5-yl)-[3-(4-fluoro-phenyl)-8-aza-bicyclo[3.2.1]oct-8-yl]-methanone], the “11β-HSD1 remaining activity (% of control)” value is given as −57 % CTL.
For the compound `O=C(N1[C@@H]2CC[C@H]1C[C@@H](O)C2)N1[C@@H]2CC[C@H]1C[C@@H](c1ccc(F)cc1)C2` [Example 8, [endo-3-(4-Fluoro-phenyl)-8-aza-bicyclo[3.2.1]oct-8-yl]-(endo-3-hydroxy-8-aza-bicyclo[3.2.1]oct-8-yl)-methanone], the “11β-HSD1 remaining activity (% of control)” value is on record as −59 % CTL.
To `NC(=O)C1CCN(C(=O)N2[C@@H]3CC[C@H]2C[C@@H](c2ccc(F)cc2)C3)CC1` [Example 9, endo-1-[3-(4-Fluoro-phenyl)-8-aza-bicyclo[3.2.1]octane-8-carbonyl]-piperidine-4-carboxylic acid amide] belongs −49 % CTL.
On to `O=C(O)C1CCN(C(=O)N2[C@@H]3CC[C@H]2C[C@@H](c2ccc(F)cc2)C3)CC1` [Example 11, endo-1-[3-(4-Fluoro-phenyl)-8-aza-bicyclo[3.2.1]octane-8-carbonyl]-piperidine-4-carboxylic acid], for which the “11β-HSD1 remaining activity (% of control)” value is listed as 4 % CTL.
To `N#CC1CCN(C(=O)N2[C@@H]3CC[C@H]2C[C@@H](c2ccc(F)cc2)C3)CC1` [Example 12, endo-1-[3-(4-Fluoro-phenyl)-8-aza-bicyclo[3.2.1]octane-8-carbonyl]-piperidine-4-carbonitrile] belongs −27 % CTL; to `COC1CCN(C(=O)N2[C@@H]3CC[C@H]2C[C@@H](c2ccc(F)cc2)C3)CC1` [Example 13, endo-[3-(4-Fluoro-phenyl)-8-aza-bicyclo[3.2.1]oct-8-yl]-(4-methoxy-piperidin-1-yl)-methanone], −25 % CTL; to `O=C(N1CCC(O)(C(F)(F)F)CC1)N1[C@@H]2CC[C@H]1C[C@@H](c1ccc(F)cc1)C2` [Example 14, endo-[3-(4-Fluoro-phenyl)-8-aza-bicyclo[3.2.1]oct-8-yl]-(4-hydroxy-4-trifluoromethyl-piperidin-1-yl)-methanone], −30 % CTL.
With `COC(=O)C1CCN(C(=O)N2[C@@H]3CC[C@H]2C[C@@H](c2ccc(F)cc2)C3)CC1` [Example 15, endo-1-[3-(4-Fluoro-phenyl)-8-aza-bicyclo[3.2.1]octane-8-carbonyl]-piperidine-4-carboxylic acid methyl ester], the “11β-HSD1 remaining activity (% of control)” value is reported as 20 % CTL.
Consider `CC1(O)CCN(C(=O)N2[C@@H]3CC[C@H]2C[C@@H](c2ccc(F)cc2)C3)CC1` [Example 16, endo-[3-(4-Fluoro-phenyl)-8-aza-bicyclo[3.2.1]oct-8-yl]-(4-hydroxy-4-methyl-piperidin-1-yl)-methanone], for which the “11β-HSD1 remaining activity (% of control)” value is −23 % CTL.
Take `O=C(N1C2CCC1CC(O)(C(F)(F)F)C2)N1[C@@H]2CC[C@H]1C[C@@H](c1ccc(F)cc1)C2` (stereo partly drawn) [Example 17, endo-[3-(4-Fluoro-phenyl)-8-aza-bicyclo[3.2.1]oct-8-yl]-(3-hydroxy-3-trifluoromethyl-8-aza-bicyclo[3.2.1]oct-8-yl)-methanone]: the “11β-HSD1 remaining activity (% of control)” value is reported as −11 % CTL.
The result for `O=C(N1CCCC2(CCCNC2=O)C1)N1[C@@H]2CC[C@H]1C[C@@H](c1ccc(F)cc1)C2` (stereo partly drawn) [Example 18, endo-8-[3-(4-Fluoro-phenyl)-8-aza-bicyclo[3.2.1]octane-8-carbonyl]-2,8-diaza-spiro[5.5]undecan-1-one] reads 62 % CTL; that for `O=C(N1CCCC2(CCNC2=O)C1)N1[C@@H]2CC[C@H]1C[C@@H](c1ccc(F)cc1)C2` (stereo partly drawn) [Example 19, endo-7-[3-(4-Fluoro-phenyl)-8-aza-bicyclo[3.2.1]octane-8-carbonyl]-2,7-diaza-spiro[4.5]decan-1-one], 34 % CTL; that for `O=C(N1CCCC(CO)C1)N1[C@@H]2CC[C@H]1C[C@@H](c1ccc(F)cc1)C2` (stereo partly drawn) [Example 20, endo-[3-(4-Fluoro-phenyl)-8-aza-bicyclo[3.2.1]oct-8-yl]-(3-hydroxymethyl-piperidin-1-yl)-methanone], −17 % CTL.
`O=C(N1CCC(CO)CC1)N1[C@@H]2CC[C@H]1C[C@@H](c1ccc(F)cc1)C2` [Example 21, endo-[3-(4-Fluoro-phenyl)-8-aza-bicyclo[3.2.1]oct-8-yl]-(4-hydroxymethyl-piperidin-1-yl)-methanone]: the “11β-HSD1 remaining activity (% of control)” value is reported as −20 % CTL.
Consider `CC(C)(O)C1CCN(C(=O)N2[C@@H]3CC[C@H]2C[C@@H](c2ccc(F)cc2)C3)CC1` [Example 22, endo-[3-(4-Fluoro-phenyl)-8-aza-bicyclo[3.2.1]oct-8-yl]-[4-(1-hydroxy-1-methyl-ethyl)-piperidin-1-yl]-methanone], for which the “11β-HSD1 remaining activity (% of control)” value is recorded as −18 % CTL.

These data come from patent US8829027B2, “Urea derivatives of substituted nortropanes, medicaments containing such compounds and their use” (Boehringer Ingelheim International GmbH, priority 2008, dated 2014).
